Experiments:
Format in all cases: cell-based
[1] = target: proteins of U3A human fibrosarcoma cells (4462 proteins detected) (Homo sapiens, UniProt Q9H9F9); conditions: protein ACTR5; U3A cells
[2] = target: proteins of U3A human fibrosarcoma cells (4462 proteins detected) (Homo sapiens, UniProt Q8TBZ3); conditions: protein WDR20, U3A cells
[3] = target: proteins of U3A human fibrosarcoma cells (4462 proteins detected) (Homo sapiens, UniProt P05121); conditions: protein SERPINE1; U3A cells
[4] = target: proteins of U3A human fibrosarcoma cells (4462 proteins detected) (Homo sapiens, UniProt Q13829); conditions: protein TNFAIP1; U3A cells
[5] = target: proteins of U3A human fibrosarcoma cells (4462 proteins detected) (Homo sapiens, UniProt P82663); conditions: protein MRPS25; U3A cells
[6] = target: proteins of U3A human fibrosarcoma cells (4462 proteins detected) (Homo sapiens, UniProt Q8N4Q1); conditions: protein CHCHD4; soluble abundance after heat, U3A cells
Chain of proteins of U3A human fibrosarcoma cells (4462 proteins detected) (Homo sapiens, UniProt Q8N4Q1) (Q8N4Q1 whole entry): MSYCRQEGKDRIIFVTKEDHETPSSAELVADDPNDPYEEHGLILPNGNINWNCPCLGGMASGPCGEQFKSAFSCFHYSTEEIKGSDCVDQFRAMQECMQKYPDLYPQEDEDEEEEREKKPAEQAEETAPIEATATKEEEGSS

[7] = target: proteins of U3A human fibrosarcoma cells (4462 proteins detected) (Homo sapiens, UniProt Q9NSA3); conditions: protein CTNNBIP1; U3A, 10 μM, 2 h
Chain of proteins of U3A human fibrosarcoma cells (4462 proteins detected) (Homo sapiens, UniProt Q9NSA3) (Q9NSA3 whole entry): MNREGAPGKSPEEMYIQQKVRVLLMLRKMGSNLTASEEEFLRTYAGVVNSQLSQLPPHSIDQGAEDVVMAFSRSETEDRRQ

[8] = target: proteins of U3A human fibrosarcoma cells (4462 proteins detected) (Homo sapiens, UniProt Q16666); conditions: protein IFI16; soluble abundance after heat, U3A cells
Chain of proteins of U3A human fibrosarcoma cells (4462 proteins detected) (Homo sapiens, UniProt Q16666) (Q16666 whole entry): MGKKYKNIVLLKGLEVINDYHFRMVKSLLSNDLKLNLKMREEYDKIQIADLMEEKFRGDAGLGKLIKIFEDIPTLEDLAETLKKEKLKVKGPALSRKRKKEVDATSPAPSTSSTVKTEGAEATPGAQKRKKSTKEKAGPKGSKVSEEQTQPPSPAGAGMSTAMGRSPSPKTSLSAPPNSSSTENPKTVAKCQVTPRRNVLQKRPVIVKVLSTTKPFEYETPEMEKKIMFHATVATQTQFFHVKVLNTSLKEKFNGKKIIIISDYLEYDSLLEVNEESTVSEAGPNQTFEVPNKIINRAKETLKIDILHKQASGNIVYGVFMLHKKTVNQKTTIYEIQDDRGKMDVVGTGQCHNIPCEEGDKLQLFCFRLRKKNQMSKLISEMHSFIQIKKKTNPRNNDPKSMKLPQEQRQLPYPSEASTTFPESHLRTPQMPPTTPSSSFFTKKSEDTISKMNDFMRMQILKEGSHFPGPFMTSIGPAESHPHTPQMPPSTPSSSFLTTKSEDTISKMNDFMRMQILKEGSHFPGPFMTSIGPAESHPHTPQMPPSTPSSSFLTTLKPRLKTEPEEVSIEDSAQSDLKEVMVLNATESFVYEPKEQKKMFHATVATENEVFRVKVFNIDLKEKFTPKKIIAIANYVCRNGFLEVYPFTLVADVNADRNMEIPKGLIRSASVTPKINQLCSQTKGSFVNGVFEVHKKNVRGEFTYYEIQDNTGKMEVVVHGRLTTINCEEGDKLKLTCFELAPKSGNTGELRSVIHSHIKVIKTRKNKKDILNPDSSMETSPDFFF

[9] = target: proteins of U3A human fibrosarcoma cells (4462 proteins detected) (Homo sapiens, UniProt P51659); conditions: protein HSD17B4; U3A cells
[10] = target: proteins of U3A human fibrosarcoma cells (4462 proteins detected) (Homo sapiens, UniProt Q92973); conditions: protein TNPO1; U3A cells
[11] = target: proteins of U3A human fibrosarcoma cells (4462 proteins detected) (Homo sapiens, UniProt P0C2W1); conditions: protein FBXO45, U3A cells
Chain of proteins of U3A human fibrosarcoma cells (4462 proteins detected) (Homo sapiens, UniProt P0C2W1) (P0C2W1 whole entry): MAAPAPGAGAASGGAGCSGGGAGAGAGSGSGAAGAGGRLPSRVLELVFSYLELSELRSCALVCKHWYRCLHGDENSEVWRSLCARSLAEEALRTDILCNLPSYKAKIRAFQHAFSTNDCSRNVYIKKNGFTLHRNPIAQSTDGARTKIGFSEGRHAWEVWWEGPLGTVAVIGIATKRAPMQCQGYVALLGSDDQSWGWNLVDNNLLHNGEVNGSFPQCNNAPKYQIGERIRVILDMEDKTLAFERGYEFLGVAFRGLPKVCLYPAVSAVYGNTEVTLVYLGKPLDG

[12] = target: proteins of U3A human fibrosarcoma cells (4462 proteins detected) (Homo sapiens, UniProt Q9BQG0); conditions: protein MYBBP1A; U3A, 10 μM, 2 h
Chain of proteins of U3A human fibrosarcoma cells (4462 proteins detected) (Homo sapiens, UniProt Q9BQG0) (Q9BQG0 whole entry): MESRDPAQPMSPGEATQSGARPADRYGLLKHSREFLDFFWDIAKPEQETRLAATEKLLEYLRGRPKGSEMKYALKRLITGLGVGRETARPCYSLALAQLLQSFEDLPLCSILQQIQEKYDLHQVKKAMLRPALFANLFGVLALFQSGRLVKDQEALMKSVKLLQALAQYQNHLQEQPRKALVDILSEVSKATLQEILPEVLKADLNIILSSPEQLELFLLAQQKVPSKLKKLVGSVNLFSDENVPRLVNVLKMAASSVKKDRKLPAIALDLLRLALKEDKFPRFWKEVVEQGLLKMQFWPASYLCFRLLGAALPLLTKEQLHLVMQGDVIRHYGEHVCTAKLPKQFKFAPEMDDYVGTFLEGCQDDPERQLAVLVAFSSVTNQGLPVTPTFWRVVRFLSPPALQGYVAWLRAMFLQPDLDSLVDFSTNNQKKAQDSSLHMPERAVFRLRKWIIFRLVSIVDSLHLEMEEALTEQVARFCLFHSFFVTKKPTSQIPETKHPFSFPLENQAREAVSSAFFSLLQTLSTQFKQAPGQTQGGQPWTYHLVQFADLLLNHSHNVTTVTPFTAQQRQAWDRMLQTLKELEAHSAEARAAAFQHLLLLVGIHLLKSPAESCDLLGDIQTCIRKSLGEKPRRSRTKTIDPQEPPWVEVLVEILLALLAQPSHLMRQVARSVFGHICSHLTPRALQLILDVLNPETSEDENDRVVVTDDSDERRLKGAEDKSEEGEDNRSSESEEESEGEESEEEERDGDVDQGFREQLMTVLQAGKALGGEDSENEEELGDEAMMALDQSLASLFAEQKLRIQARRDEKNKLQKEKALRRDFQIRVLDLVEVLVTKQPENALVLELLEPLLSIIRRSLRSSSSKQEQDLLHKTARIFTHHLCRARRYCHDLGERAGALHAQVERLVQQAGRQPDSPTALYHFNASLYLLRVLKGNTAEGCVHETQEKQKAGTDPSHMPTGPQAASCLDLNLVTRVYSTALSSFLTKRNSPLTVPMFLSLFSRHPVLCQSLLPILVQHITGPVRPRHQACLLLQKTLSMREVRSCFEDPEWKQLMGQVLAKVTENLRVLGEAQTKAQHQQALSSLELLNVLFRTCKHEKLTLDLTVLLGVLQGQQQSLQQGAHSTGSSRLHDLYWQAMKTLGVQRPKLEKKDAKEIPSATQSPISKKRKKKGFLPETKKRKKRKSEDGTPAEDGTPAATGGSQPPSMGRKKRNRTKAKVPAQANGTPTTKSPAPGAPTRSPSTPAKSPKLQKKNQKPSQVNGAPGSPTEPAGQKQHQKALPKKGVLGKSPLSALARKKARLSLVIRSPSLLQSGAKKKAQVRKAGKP

[13] = target: proteins of U3A human fibrosarcoma cells (4462 proteins detected) (Homo sapiens, UniProt Q9Y2K3); conditions: protein MYH15; U3A cells
[14] = target: proteins of U3A human fibrosarcoma cells (4462 proteins detected) (Homo sapiens, UniProt P16298); conditions: protein PPP3CB; U3A cells
[15] = target: proteins of U3A human fibrosarcoma cells (4462 proteins detected) (Homo sapiens, UniProt O60885); conditions: protein BRD4; soluble abundance after heat, U3A cells
[16] = target: proteins of U3A human fibrosarcoma cells (4462 proteins detected) (Homo sapiens, UniProt Q9UIV1); conditions: protein CNOT7; U3A, 10 μM, 2 h
[17] = target: proteins of U3A human fibrosarcoma cells (4462 proteins detected) (Homo sapiens, UniProt O95059); conditions: protein RPP14; soluble abundance after heat, U3A cells
[18] = target: proteins of U3A human fibrosarcoma cells (4462 proteins detected) (Homo sapiens, UniProt P15153); conditions: protein RAC2; U3A, 10 μM, 2 h
[19] = target: proteins of U3A human fibrosarcoma cells (4462 proteins detected) (Homo sapiens, UniProt Q53FT3); conditions: protein C11orf73; U3A, 10 μM, 2 h
Chain of proteins of U3A human fibrosarcoma cells (4462 proteins detected) (Homo sapiens, UniProt Q53FT3) (Q53FT3 whole entry): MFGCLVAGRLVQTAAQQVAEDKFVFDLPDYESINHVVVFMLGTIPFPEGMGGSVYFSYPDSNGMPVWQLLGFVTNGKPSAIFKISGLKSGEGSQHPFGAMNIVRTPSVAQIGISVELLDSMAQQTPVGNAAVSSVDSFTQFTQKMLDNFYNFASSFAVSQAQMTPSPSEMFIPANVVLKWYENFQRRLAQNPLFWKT

[20] = target: proteins of U3A human fibrosarcoma cells (4462 proteins detected) (Homo sapiens, UniProt P49841); conditions: protein GSK3B; soluble abundance after heat, U3A cells
Chain of proteins of U3A human fibrosarcoma cells (4462 proteins detected) (Homo sapiens, UniProt P49841) (P49841 whole entry): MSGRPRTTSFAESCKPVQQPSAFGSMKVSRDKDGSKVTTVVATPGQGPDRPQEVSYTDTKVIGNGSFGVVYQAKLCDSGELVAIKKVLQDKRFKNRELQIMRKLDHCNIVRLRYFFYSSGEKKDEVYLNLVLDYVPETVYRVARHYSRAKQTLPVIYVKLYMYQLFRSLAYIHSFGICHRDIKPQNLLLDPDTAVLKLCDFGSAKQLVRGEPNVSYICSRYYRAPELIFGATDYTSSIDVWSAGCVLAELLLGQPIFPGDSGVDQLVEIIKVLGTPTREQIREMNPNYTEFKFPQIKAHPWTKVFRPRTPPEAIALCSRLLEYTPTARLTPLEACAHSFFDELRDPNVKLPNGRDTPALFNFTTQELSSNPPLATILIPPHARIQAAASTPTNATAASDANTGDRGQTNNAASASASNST

[21] = target: proteins of U3A human fibrosarcoma cells (4462 proteins detected) (Homo sapiens, UniProt Q16740); conditions: protein CLPP; soluble abundance after heat, U3A cells
[22] = target: proteins of U3A human fibrosarcoma cells (4462 proteins detected) (Homo sapiens, UniProt Q9Y5J1); conditions: protein UTP18; U3A cells
[23] = target: proteins of U3A human fibrosarcoma cells (4462 proteins detected) (Homo sapiens, UniProt Q9UL15); conditions: protein BAG5; U3A cells
Chain of proteins of U3A human fibrosarcoma cells (4462 proteins detected) (Homo sapiens, UniProt Q9UL15) (Q9UL15 whole entry): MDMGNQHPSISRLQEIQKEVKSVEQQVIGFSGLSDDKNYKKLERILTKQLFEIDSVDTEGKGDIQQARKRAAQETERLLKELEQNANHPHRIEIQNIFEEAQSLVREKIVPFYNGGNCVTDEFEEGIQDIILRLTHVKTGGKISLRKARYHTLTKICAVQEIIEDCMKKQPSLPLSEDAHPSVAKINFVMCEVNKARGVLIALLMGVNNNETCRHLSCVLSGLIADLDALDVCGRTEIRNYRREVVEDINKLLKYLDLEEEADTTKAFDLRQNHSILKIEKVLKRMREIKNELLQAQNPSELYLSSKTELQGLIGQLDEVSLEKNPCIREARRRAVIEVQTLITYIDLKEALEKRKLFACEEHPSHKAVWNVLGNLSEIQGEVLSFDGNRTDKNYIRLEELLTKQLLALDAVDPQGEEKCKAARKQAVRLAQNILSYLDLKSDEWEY

[24] = target: proteins of U3A human fibrosarcoma cells (4462 proteins detected) (Homo sapiens, UniProt Q15428); conditions: protein SF3A2; U3A cells
[25] = target: proteins of U3A human fibrosarcoma cells (4462 proteins detected) (Homo sapiens, UniProt P14854); conditions: protein COX6B1, U3A cells
Chain of proteins of U3A human fibrosarcoma cells (4462 proteins detected) (Homo sapiens, UniProt P14854) (P14854 whole entry): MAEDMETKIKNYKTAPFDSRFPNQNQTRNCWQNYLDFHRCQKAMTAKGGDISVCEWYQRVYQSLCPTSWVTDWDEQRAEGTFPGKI

[26] = target: proteins of U3A human fibrosarcoma cells (4462 proteins detected) (Homo sapiens, UniProt Q969G3); conditions: protein SMARCE1, U3A cells
Chain of proteins of U3A human fibrosarcoma cells (4462 proteins detected) (Homo sapiens, UniProt Q969G3) (Q969G3 whole entry): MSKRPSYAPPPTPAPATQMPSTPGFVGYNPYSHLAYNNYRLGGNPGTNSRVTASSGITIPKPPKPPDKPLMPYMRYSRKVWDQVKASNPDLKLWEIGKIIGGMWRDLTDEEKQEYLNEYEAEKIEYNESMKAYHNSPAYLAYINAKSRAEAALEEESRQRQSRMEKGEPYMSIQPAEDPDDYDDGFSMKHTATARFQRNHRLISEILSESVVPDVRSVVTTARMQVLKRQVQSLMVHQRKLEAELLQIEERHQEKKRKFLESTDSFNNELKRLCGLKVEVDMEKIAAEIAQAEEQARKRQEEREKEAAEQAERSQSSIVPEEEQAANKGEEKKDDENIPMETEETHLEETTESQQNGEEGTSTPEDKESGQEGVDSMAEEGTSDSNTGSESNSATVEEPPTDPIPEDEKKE

[27] = target: proteins of U3A human fibrosarcoma cells (4462 proteins detected) (Homo sapiens, UniProt P35606); conditions: protein COPB2; soluble abundance after heat, U3A cells
[28] = target: proteins of U3A human fibrosarcoma cells (4462 proteins detected) (Homo sapiens, UniProt Q09161); conditions: protein NCBP1; soluble abundance after heat, U3A cells
Chain of proteins of U3A human fibrosarcoma cells (4462 proteins detected) (Homo sapiens, UniProt Q09161) (Q09161 whole entry): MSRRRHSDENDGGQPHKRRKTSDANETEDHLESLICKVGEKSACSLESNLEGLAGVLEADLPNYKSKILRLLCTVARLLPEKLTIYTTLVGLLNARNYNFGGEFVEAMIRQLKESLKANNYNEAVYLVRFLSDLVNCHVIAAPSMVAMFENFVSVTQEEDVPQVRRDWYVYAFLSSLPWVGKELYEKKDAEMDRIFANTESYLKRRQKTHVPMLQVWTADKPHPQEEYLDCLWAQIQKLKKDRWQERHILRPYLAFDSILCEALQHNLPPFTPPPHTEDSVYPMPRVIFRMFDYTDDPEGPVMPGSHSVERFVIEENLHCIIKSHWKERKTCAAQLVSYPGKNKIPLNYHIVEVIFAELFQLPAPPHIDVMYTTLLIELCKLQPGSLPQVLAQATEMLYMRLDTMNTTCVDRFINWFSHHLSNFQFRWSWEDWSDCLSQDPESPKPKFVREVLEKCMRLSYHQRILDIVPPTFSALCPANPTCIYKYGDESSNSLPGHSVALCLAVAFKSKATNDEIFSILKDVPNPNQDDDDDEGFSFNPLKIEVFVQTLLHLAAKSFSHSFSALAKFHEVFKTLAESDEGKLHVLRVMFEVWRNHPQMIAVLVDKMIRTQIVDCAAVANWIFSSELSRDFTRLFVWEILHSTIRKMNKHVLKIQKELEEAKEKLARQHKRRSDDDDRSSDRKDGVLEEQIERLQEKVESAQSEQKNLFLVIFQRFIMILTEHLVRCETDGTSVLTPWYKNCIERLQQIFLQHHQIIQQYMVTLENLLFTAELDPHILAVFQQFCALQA

[29] = target: proteins of U3A human fibrosarcoma cells (4462 proteins detected) (Homo sapiens, UniProt P49207); conditions: protein RPL34; U3A cells

## CCc1nc(N)nc(N)c1-c1ccc(Cl)cc1 [pyrimethamine]
[1]
  Log2 (PYR/DMSO): 0.20
[2]
  Log2 (PYR/DMSO): -0.04
[3]
  Log2 (PYR/DMSO): 0.19
[4]
  Log2 (PYR/DMSO): 0.21
[5]
  Log2 (PYR/DMSO): 0.17
[6]
  Log2 (PYR/DMSO): 0.14
[7]
  Log2 (PYR/DMSO), CTNNBIP1: -0.15
[8]
  Log2 (PYR/DMSO): 0.13
[9]
  Log2 (PYR/DMSO): 0.17
[10]
  Log2 (PYR/DMSO): 0.22
[11]
  Log2 (PYR/DMSO): -0.04
[12]
  Log2 (PYR/DMSO), MYBBP1A: 0.26
[13]
  Log2 (PYR/DMSO): 0.17
[14]
  Log2 (PYR/DMSO): 0.19
[15]
  Log2 (PYR/DMSO): 0.14
[16]
  Log2 (PYR/DMSO), CNOT7: -0.24
[17]
  Log2 (PYR/DMSO): 0.14
[18]
  Log2 (PYR/DMSO), RAC2: -0.15
[19]
  Log2 (PYR/DMSO), C11orf73: 0.28
[20]
  Log2 (PYR/DMSO): 0.15
[21]
  Log2 (PYR/DMSO): 0.14
[22]
  Log2 (PYR/DMSO): 0.21
[23]
  Log2 (PYR/DMSO): 0.16
[24]
  Log2 (PYR/DMSO): 0.20
[25]
  Log2 (PYR/DMSO): -0.04
[26]
  Log2 (PYR/DMSO): -0.05
[27]
  Log2 (PYR/DMSO): 0.15
[28]
  Log2 (PYR/DMSO): 0.14
[29]
  Log2 (PYR/DMSO): 0.21
